Results reported in BindingDB's records for doi:10.7270/Q2B856NC (Burnham Center For Chemical Genomics, 2011).

These compounds were tested against T1, Apelin receptor (Homo sapiens, UniProt P35414) (assay: apelin receptor antagonists, arrestin read-out – cell-based, luminescent, enzyme-fragment complementation, selectivity assay for CCR6 antagonist project, SAR follow-up (AID 588359)).
T1 sequence (P35414 whole entry): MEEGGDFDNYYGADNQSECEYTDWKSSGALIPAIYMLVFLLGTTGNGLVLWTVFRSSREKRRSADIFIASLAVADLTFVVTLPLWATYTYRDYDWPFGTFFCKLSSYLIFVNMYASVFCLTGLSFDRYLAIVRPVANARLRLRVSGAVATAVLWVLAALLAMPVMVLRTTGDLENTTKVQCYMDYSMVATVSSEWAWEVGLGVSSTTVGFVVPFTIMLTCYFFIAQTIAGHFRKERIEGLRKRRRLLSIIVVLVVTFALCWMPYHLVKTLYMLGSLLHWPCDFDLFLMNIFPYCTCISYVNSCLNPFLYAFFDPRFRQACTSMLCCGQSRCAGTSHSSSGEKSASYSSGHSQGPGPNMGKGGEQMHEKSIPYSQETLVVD

Point of comparison: `CC(N=Nc1ccc2ccccc2n1)c1ccccc1O` (stereo not drawn) [(6Z)-6-[1-[N'-(2-quinolyl)hydrazino]ethylidene]cyclohexa-2,4-dien-1-one], IC50 4.12 µM. Against it:
- OCC12C=CC(O1)c1c2c(O)n(-c2ccccc2-c2ccccc2)c1O (stereo not drawn) [7-(hydroxymethyl)-2-(2-phenylphenyl)-4,7a-dihydro-3aH-octahydro-1H-4,7-epoxyisoindole-1,3-dione] — higher, > 66.6 µM
- CN1C(=O)C(C2CC(c3ccc(Cl)cc3)N=N2)C(=O)N(C)C1=O (stereo not drawn) [SMR000439471] — 1.8-fold higher, 7.22 µM
